Test results from US20030017497A1, “Peptide mimotopes of carbohydrate antigens” (priority 1998, published 2003).
“Also recorded” adds a separate entry of the source. Read-outs that look alike come from different tables or passages of the source. Where no end group is shown, it is not given here.

Assays:
[1] = tested on: MCF-7; assay: Complement dependent cytotoxicity (CDC); assay type: cell-based, human
Description: (§1) Anti-carbohydrate antibodies may mediate complement dependent cytotoxicity (CDC) better than cytotoxicity associated with various effector cells. Subsequently, we have initially examined CDC mediation of various sera raised either to peptides or against the multivalent LeY-PAA form. […] We examined the ability of the sera to mediate complement dependent cytotoxicity (CDC) of the SKBR3 and MCF7 human breast adenocarcinoma cell lines, the ovarian tumor cell line OVAR-3 and the human melanoma lines WM793 and SKMEL-28 compared to that of the LeY-PAA generated sera. Positive control antibodies were BR55-2 which mediates CDC of the adenocarcinoma lines, and ME361 which mediates killing of WM793. Negative controls were pre-immune sera, an irrelevant peptide immunogen (C1) and two peptides (G1 and G2) isolated from phage display that are reactive with ME361.

[2] = tested on: OVAR-3; assay: Complement dependent cytotoxicity (CDC); assay type: cell-based, human
Description: as §1

[3] = tested on: SKBR3; assay: Complement dependent cytotoxicity (CDC); assay type: cell-based, human
Description: as §1

[4] = tested on: SKME1-28; assay: Complement dependent cytotoxicity (CDC); assay type: cell-based, human
Description: as §1

[5] = tested on: WM793; assay: Complement dependent cytotoxicity (CDC); assay type: cell-based, human
Description: as §1

[6] = tested on: anti-LeY monoclonal antibody BR55-2; assay: ELISA reaction of MAb BR55-2 with peptides (MAP forms); assay type: binding; conditions: for ELISA reactivity of BR55-2 with MAP peptide: MAP peptide forms; for binding of peptide to BR55-2 in ELISA: monovalent peptide
Method: (§2) FIGS. 2A and 2B depict the reactivity of putative motifs by ELISA. […] Constant amounts of BR55-2 were incubates with increasing amounts of MAP peptides, and then reaction of free mAb with LeY was measured by ELISA. Data points reflect 50% inhibition at 2 μg/ml of peptide inhibitor as measured by reduction of O.D. values in ELISA.
(§3) For example, polyclonal antibodies raised against the motif YYRYD might cross-react with MCP and with LeY. […] To further determine the extent of cross-reactivity for these motifs, peptides were synthesized repeating the respective putative centralized motifs shown in Table 2. It is theorized that the repeating tract should adopt a helix configuration which emulates many extended carbohydrate structures. To evaluate the antigenic mimicry of motif forms, we synthesized respective multiple antigen peptides (MAP) forms for detection of a reactivity pattern with the anti-LeY monoclonal antibodies BR55-2, and 15.6 (also referred to as BR15.6) and the anti-ganglioside antibody ME361 (FIG. 2a). Significant reactive sequences in FIG. 2a correspond to 3 peptides,
(§4) BR55-2 and 15.6A show distinct binding properties for LeY expressing tumor cells. […] The general mimicry of the K1106, K1105 and K1107 peptides for Le antigens is further assessed by ELISA reactivity with the anti-SA-LeX monoclonal antibody FH-6 (FIG. 3). These peptides are also reactive with this antibody. The significance of this reactivity is that previous reports indicate that peptides might only be reactive with antibodies that isolate them and in fact it is expected that peptide mimotopes might be not true mimics of carbohydrates.

[7] = tested on: anti-SA-LeX monoclonal antibody FH-6; assay: ELISA reactivity of peptides with antibody FH-6; assay type: binding
Description: FIG. 3 depicts the reactivity of the anti-sLex antibody FH-6 with MAP peptides.
as §4

[8] = tested on: anti-LeY monoclonal antibody 15.6 (BR15.6, 15.6A); assay: ELISA reaction of MAb 15.6 (BR15-6A) with peptides; assay type: binding
Method: as §2, §3
(§5) BR55-2 and 15.6A show distinct binding properties for LeY expressing tumor cells. […] The general mimicry of the K1106, K1105 and K1107 peptides for Le antigens is further assessed by ELISA reactivity with the anti-SA-LeX monoclonal antibody FH-6 (FIG. 3). These peptides are also reactive with this antibody. […]

[9] = tested on: anti-ganglioside antibody ME361; assay: ELISA reaction of MAb ME361 with MAP peptides; assay type: binding; conditions: MAP peptide forms
Method: as §2, §3, §5

[10] = ELISA reactivity of sera of peptide-immunized mice with LeY and Leb; assay type: in vivo, Balb/c mice; conditions: anti-1104 MAP sera
Description: The immunological presentation of the putative motifs, (i.e. short or longer peptides, presentation in a helix or beta bend, monovalent or multivalent (clustered forms)) might mimic overlapping epitopes on otherwise different carbohydrate structures. To test this idea, Balb/c mice were immunized with peptide-proteosome conjugates representative of the motifs YYPYD (SEQ ID NO: 6), and YYRYD (SEQ ID NO: 7) or the same peptides as MAP forms that are multiple repeats of the motifs administered with QS-21. Sera were collected 1 week after the last immunization, pooled and tested for reactivity with LeY and Leb. […] Superposition of LeY and Leb structures indicate that despite the change of glycosidic linkage from β1-3 to β1-4 in the type 1 and 2 chains, resulting conformational features of the respective sugar moieties are still shared forming a common topography. The only effective difference is the position of the N-acetyl and hydroxymethyl groups projected on opposite sides of the type 1 and 2 difucosylated structures.
Sera derived from immunization with the MAP peptides indicate that the IgM isotype is the predominate form, titering out to 1:2000 for the two carbohydrate forms, but displaying significant differences in reactivity for LeY and Leb that are accentuated at 1:100 and 1:500 titer (FIG. 4b). […]

[11] = ELISA with various synthetic carbohydrate subunit probes; assay type: binding
Method: To further evaluate the specificity of the anti-carbohydrate IgG fraction derived from proteosome-conjugate immunized mice, ELISA assays were performed with plates coated with various synthetic carbohydrate subunit probes (FIG. 5a). […] It was observed that the anti-peptide sera (1:100 titer) was reactive with respective carbohydrate probes above background binding. Preferences for antisera against the YPY motif include Fucα1-3GlcNAc representative of LeY, and Lex, the H type 1 structure Fucα1-2Galβ1-3GlcNAc representative of Leb, and the disaccharide Galb1-4Glc which is a major constituent bacterial LOS. […] The antisera reacted with both H type 1 and H type 2 (Fucα1-2Galβ1-4GlcNAc) structures, with the type 1 structure displaying slightly more activity. This may reflect interaction with the common Fucα1-2Gal structure found on type 1 and type 2 structures or functional groups that are shared within the common topography of these two chains.
In contrast to the proteosome-peptide conjugates, increased specificity for LeY is observed for the MAP forms (FIG. 5b). At 1:50 dilution, the LeY reactivity of the antisera is approximately 3 fold more reactive with LeY than with Leb, Lex-pentasaccharide, SLea, SLex. […] Considering the diminished reactivity against LeX which shares the Galβ1→4(Fucα1→3)GlcNAcβ1 component it would appear that a fraction of antibodies react with a conformational component of LeY, providing for its increased reactivity, or alternatively, the affinity for LeY is increased.
To further evaluate the specificity of the 1104 peptide we synthesized 1104 as a MAP form and immunized Balb/c mice, with QS-21 as adjuvant and examined its reactivity pattern with various Le synthetic probes by ELISA (FIG. 9). The utility of MAP peptides is in their apparent advantage as immunogens. […] However, the MAPS described above contain T cell epitopes within the peptide sequence. […] We have observed this trend with MAP peptides.
At 1:50 serum dilution (FIG. 9), we observed about the same level of reduced reactivity for Leb hexasaccharide, LeX-pentasaccharide, sLeX, Lea, and sLea, while higher levels of reactivity are observed for LeY and LeY constituents. […] This selective interaction sets apart reactivities between Leb and LeY, since reactivity is observed for the H type 1 constituent of Leb.

[12] = tested on: HIV-1/MN; assay: HIV-1 cell free neutralization (syncytia formation); assay type: cell-based; conditions: anti-peptide sera
Description: (§6) FIGS. 7A, 7B and 7C depict anti-peptide sera mediation of HIV-1 cell free neutralization.
(§7) Mannose, sialyl and histo-blood group related carbohydrate epitopes (particularly LeY) are found on the major envelope protein of the human immunodeficiency virus (HIV). Consequently, we examined the extent to which the anti-peptide sera could mediate HIV-1 cell free neutralization. We observed that sera from Balb/c and C57B1/6 mice immunized with P1 or P2, neutralized HIV-1/MN at final dilution's up to 1:64 (FIGS. 7a-c). FIG. 7a illustrates the neutralization of HIV-1/MN by anti-P1 and P2 sera from Balb/c mice. Normal human sera (NHS), as well as the anti-P3 sera, were ineffective at blocking syncytia formnation, whereas human α-HIV-1 sera from 4 different infected patients neutralize cell free virus at dilution's up to 1:64. Sera derived from C57B1/6 mice also followed this profile (FIG. 7b). The isolate specificity was further determined by cell free neutralization of the HIV-1/3B isolate (FIG. 7c).

[13] = tested on: HIV-1/3B isolate; assay: HIV-1 cell free neutralization; assay type: cell-based; conditions: Balb/c anti-peptide sera
Description: as §6, §7

[14] = tested on: BR55-2 binding to LeY-PAA; assay: Inhibition of mAb BR55-2 binding to solid-phase LeY-PAA by soluble MAP peptides (ELISA); conditions: 20 times molar excess of MAP peptide
Method: as §2, §4

[15] = molecular target: anti-LeY monoclonal antibody BR55-2; assay: competition ELISA: soluble MAP peptide against solid-phase LeY-PAA for BR55-2 (FIG. 2b)
[16] = anti-1104 MAP sera, 1:50 serum dilution
[17] = MCF-7, sera raised to the immunogen, final dilution 1:15
[18] = OVAR-3, sera raised to the immunogen, final dilution 1:15
[19] = SKBR3, sera raised to the immunogen, final dilution 1:15
[20] = SKME1-28, sera raised to the immunogen, final dilution 1:15
[21] = WM793, sera raised to the immunogen, final dilution 1:15

## GVVWRYTAPVHLGDG [Peptide G1, GVVWRYTAPVHLGDG]
[1]
  averaged percent cytotoxicity: 20%
[2]
  averaged percent cytotoxicity: 9%
[3]
  averaged percent cytotoxicity: 10%
[4]
  averaged percent cytotoxicity: 75%
[5]
  averaged percent cytotoxicity: 90%

## LDVVLAWRDGLSGAS [Peptide G2, LDVVLAWRDGLSGAS]
[1]
  averaged percent cytotoxicity: 15%
[2]
  averaged percent cytotoxicity: 11%
[3]
  averaged percent cytotoxicity: 13%
[4]
  averaged percent cytotoxicity: 87%
[5]
  averaged percent cytotoxicity: 90%

## GGIYYPYDIYYPYDIYYPYD (Novel Sequence) [Peptide K61105]
[6]
  ELISA reactivity of BR55-2 with MAP peptide: reduces the recognition ability
[7]
  ELISA reactivity with FH-6: also reactive

## GGGAPWLYGAPWLYGAPWLY [Peptide K61223, triple repeat of the APWLY motif]
[6]
  ELISA reactivity of BR55-2 with MAP peptide: not reactive; also recorded: little reactivity
[8]
  ELISA reactivity of 15.6 / BR15-6A with peptide: not reactive
[9]
  ELISA reactivity (O.D.) of ME361 with MAP peptide: not reactive

## IMILLIFSLLWFGGA (Novel Sequence) [Peptide B1]
[7]
  ELISA reactivity with FH-6: does not react
[10]
  increase in reactivity for LeY over Leb: three to fold increase
  isotype of anti-peptide sera: predominately of IgM isotype
[11]; [16]
  serum reactivity with Fucal-3GlcNAc: best reactivity
  serum reactivity with Fucα1-4GIcNAc: significantly reduced reactivity
  serum reactivity with Galβ1-3Gal: Minimal binding
[1]; [17]
  averaged percent cytotoxicity: 70%
[2]; [18]
  averaged percent cytotoxicity: 85%
[3]; [19]
  averaged percent cytotoxicity: 90%
[4]; [20]
  averaged percent cytotoxicity: 10%
[5]; [21]
  averaged percent cytotoxicity: 10%

## GGIYYRYDIYYRYDIYYRYD (Novel Sequence) [Peptide P3]
[1]
  averaged percent cytotoxicity: 56%
[2]
  averaged percent cytotoxicity: 86%
[3]
  averaged percent cytotoxicity: 86%
[4]
  averaged percent cytotoxicity: 32%
[5]
  averaged percent cytotoxicity: 28%
[12]
  blocking syncytia formation: ineffective

## GGIYWRYDIYWRYDIYWRYD (Novel Sequence) [Peptide P2, elsewhere called YYRYD motif]
[1]
  averaged percent cytotoxicity: 29%
[2]
  averaged percent cytotoxicity: 84%
[3]
  averaged percent cytotoxicity: 80%
[4]
  averaged percent cytotoxicity: 13%
[5]
  averaged percent cytotoxicity: 9%
[13]
  neutralization of HIV-1/3B infection in vitro: effective in neutralizing

## GGIYYPYDIYYPYDIYYPYD (Novel Sequence) [Peptide P1]
[1]; [17]
  averaged percent cytotoxicity: 66%
[2]; [18]
  averaged percent cytotoxicity: 89%
[3]; [19]
  averaged percent cytotoxicity: 90%
[4]; [20]
  averaged percent cytotoxicity: 10%
[5]; [21]
  averaged percent cytotoxicity: 9%
[13]
  neutralization of HIV-1/3B infection in vitro: effective in neutralizing

## APWLYAP (Novel Sequence) [reference compound]
[6]
  binding of peptide to BR55-2 in ELISA: negative
[8]
  ELISA reactivity of 15.6 / BR15-6A with peptide: negative

## APWLYGPA (Novel Sequence) [reference compound]
[6]
  binding of peptide to BR55-2 in ELISA: does not bind

## GGYYRYDIYYRYDIYYRYD (Novel Sequence) [Peptide K61107]
[6]
  ELISA reactivity of BR55-2 with MAP peptide: bound very well
[7]
  ELISA reactivity with FH-6: also reactive
[14]
  inhibition of BR55-2 binding to LeY: 50%
[11]; antisera to MAP, 1:50 dilution
  less reactivity with Lea and Sialyl-Lex: about 1 fold

## GGIYWRYDIYWRYDIYWRYD (Novel Sequence) [Peptide K61106]
[6]
  ELISA reactivity of BR55-2 with MAP peptide: bound very well
[7]
  ELISA reactivity with FH-6: also reactive
[14]
  inhibition of BR55-2 binding to LeY: 50%

## GGYYRYDIYYRYDIYYRYD (also: multiple antigen peptide (MAP) form, branches and core not given here) [K61107 MAP peptide …]
[15]
  molar excess giving 50% inhibition (times molar excess): 20

## GGIYWRYDIYWRYDIYWRYD (also: multiple antigen peptide (MAP) form, branches and core not given here) [K61106 MAP peptide …]
[15]
  molar excess giving 50% inhibition (times molar excess): 20
